PMC10482975 (Nature Communications, 2023)

Experiments:
M2 mAChR WT = target: T1, M2 mAChR WT (Homo sapiens, UniProt P08172); assay: [3H]-NMS radioligand dissociation binding, M2 mAChR WT
T1 construct: expressed in transfected cells
T1 sequence (P08172 1-466): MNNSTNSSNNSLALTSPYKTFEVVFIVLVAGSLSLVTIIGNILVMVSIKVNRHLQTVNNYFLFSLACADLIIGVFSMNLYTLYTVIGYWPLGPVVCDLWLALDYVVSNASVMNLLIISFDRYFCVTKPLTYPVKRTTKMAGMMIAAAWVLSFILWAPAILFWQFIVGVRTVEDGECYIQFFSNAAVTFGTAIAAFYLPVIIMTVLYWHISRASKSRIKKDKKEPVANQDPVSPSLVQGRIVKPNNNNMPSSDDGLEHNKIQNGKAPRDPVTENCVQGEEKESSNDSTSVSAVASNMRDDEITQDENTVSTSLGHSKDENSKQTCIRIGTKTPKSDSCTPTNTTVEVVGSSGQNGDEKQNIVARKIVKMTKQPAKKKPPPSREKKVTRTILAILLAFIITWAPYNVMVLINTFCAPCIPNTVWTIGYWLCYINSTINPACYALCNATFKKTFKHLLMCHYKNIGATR
Protocol: (§1) Flp-In Chinese hamster ovary (CHO) (Thermo Fisher Scientific) cells stably expressing mAChR WTs or mutant constructs were cultured in Dulbecco’s modified Eagle’s medium (DMEM, Invitrogen) containing 5% foetal bovine serum (FBS; ThermoTrace) and […] of hygromycin (Roche) in a humidified incubator (37 °C, 5% CO2). Upon reaching confluence, media was removed, cells were washed with phosphate buffered saline (PBS) and harvested from tissue culture flasks using versene (PBS with 0.2 g EDTA). Cells were then pelleted through centrifugation at 350 × g for three minutes followed by resuspension in DMEM + 5% FBS. Cells were then either plated for an assay or reseeded into a tissue culture flask.

M4 mAChR F186A = target: T2, M4 mAChR F186A (Homo sapiens, UniProt P08173, F186A); assay: [3H]-NMS radioligand dissociation binding, M4 mAChR F186A; details: for [3H]-NMS binding remaining (0 min = 100), MEAN: M4 F186A mAChR
T2 construct: expressed in transfected cells
T2 sequence (P08173 1-479 F186A): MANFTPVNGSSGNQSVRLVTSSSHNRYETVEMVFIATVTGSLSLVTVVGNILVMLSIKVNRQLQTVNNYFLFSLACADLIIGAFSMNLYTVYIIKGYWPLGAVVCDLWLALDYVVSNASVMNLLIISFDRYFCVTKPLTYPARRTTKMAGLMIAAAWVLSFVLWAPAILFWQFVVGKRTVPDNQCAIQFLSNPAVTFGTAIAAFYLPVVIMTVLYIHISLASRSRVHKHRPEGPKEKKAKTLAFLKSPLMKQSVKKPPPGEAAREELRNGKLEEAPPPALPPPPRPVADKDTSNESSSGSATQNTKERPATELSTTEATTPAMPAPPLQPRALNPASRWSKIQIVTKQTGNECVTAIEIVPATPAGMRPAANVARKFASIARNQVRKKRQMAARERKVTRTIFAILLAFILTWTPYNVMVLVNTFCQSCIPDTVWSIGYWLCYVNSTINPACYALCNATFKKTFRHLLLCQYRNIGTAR
Protocol: as §1

M5 mAChR WT = target: T3, M5 mAChR WT (Homo sapiens, UniProt P08912); assay: [3H]-NMS radioligand dissociation binding, M5 mAChR WT
T3 construct: expressed in transfected cells
T3 sequence (P08912 1-532): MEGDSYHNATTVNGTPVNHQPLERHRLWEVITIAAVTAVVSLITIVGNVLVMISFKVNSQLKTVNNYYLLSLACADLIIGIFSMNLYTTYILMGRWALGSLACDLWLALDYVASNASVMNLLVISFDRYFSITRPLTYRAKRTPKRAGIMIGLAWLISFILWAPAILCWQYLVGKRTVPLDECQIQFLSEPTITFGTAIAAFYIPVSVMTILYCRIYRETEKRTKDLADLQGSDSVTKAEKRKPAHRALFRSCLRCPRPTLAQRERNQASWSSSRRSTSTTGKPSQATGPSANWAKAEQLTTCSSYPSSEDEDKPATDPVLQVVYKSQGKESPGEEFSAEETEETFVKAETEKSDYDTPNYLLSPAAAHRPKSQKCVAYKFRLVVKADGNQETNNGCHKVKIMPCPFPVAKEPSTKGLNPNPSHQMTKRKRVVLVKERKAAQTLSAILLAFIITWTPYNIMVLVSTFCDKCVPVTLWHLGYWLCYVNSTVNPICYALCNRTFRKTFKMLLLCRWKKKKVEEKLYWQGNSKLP
Protocol: as §1

M3 mAChR WT = target: T4, M3 mAChR WT (Homo sapiens, UniProt P20309); assay: [3H]-NMS radioligand dissociation binding, M3 mAChR WT; details: M3 mAChR
T4 construct: expressed in transfected cells
T4 sequence (P20309 whole entry): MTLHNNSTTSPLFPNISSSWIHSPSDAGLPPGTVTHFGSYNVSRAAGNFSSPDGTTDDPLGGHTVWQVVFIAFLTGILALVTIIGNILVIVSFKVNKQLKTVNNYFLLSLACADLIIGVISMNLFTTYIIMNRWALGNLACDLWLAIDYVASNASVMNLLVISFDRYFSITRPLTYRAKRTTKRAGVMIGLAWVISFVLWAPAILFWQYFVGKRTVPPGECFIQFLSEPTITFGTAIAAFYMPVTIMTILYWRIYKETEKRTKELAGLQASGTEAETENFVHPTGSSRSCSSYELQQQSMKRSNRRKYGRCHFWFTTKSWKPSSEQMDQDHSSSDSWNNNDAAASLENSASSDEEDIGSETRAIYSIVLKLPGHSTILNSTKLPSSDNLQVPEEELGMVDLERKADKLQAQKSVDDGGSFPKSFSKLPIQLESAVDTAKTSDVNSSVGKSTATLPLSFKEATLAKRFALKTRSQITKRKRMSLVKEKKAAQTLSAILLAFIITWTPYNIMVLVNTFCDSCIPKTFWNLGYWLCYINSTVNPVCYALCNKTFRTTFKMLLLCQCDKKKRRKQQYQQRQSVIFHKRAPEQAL
Protocol: as §1

[1] = 10uM Atr + 30uM LY2033, 120 min
[2] = 10uM Atr + 30uM LY2033, 210 min
[3] = 10uM Atr + 10 μM Iperoxo, 10 min
[4] = 10uM Atr + 10 μM Iperoxo, 15 min
[5] = 10uM Atr + 10 μM Iperoxo, 30 min
[6] = 10uM Atr + 10 μM Iperoxo, 90 min
[7] = 10uM Atr + 10 μM Iperoxo, 120 min
[8] = 10uM Atr + 10 μM Iperoxo, 210 min

SMILES: COc1nc2sc(C(=O)NC3CC3)c(N)c2c(C)c1Cl [LY2033298]
- [3H]-NMS binding remaining (0 min = 100), MEAN (M2 mAChR WT; 10uM Atr + 30uM LY2033, 5 min): 100.231
- [3H]-NMS binding remaining (0 min = 100), MEAN (M2 mAChR WT; 10uM Atr + 30uM LY2033, 10 min): 104.86
- [3H]-NMS binding remaining (0 min = 100), MEAN (M2 mAChR WT; 10uM Atr + 30uM LY2033, 15 min): 105.465
- [3H]-NMS binding remaining (0 min = 100), MEAN (M2 mAChR WT; 10uM Atr + 30uM LY2033, 30 min): 97.2904
- [3H]-NMS binding remaining (0 min = 100), MEAN (M2 mAChR WT; 10uM Atr + 30uM LY2033, 40 min): 99.7247
- [3H]-NMS binding remaining (0 min = 100), MEAN (M2 mAChR WT; 10uM Atr + 30uM LY2033, 60 min): 83.2953
- [3H]-NMS binding remaining (0 min = 100), MEAN (M2 mAChR WT; 10uM Atr + 30uM LY2033, 90 min): 74.9771
- [3H]-NMS binding remaining (0 min = 100), MEAN (M4 mAChR F186A; 10uM Atr + 30uM LY2033, 30 min): 80.3007
- [3H]-NMS binding remaining (0 min = 100), MEAN (M4 mAChR F186A; 10uM Atr + 30uM LY2033, 90 min): 48.89
- [3H]-NMS binding remaining (0 min = 100), MEAN (M4 mAChR F186A; 10uM Atr + 30uM LY2033, 180 min): 55.5733
- [3H]-NMS binding remaining (0 min = 100), MEAN (M4 mAChR F186A; 10uM Atr + 30uM LY2033, 300 min): 28.0247
- effect on [3H]-NMS dissociation (in words) (M4 mAChR F186A; M4 mAChR F186A mutant): a similar effect was observed
- [3H]-NMS binding remaining (0 min = 100), MEAN (M5 mAChR WT; 10uM Atr + 30uM LY2033, 10 min): 102.761
- [3H]-NMS binding remaining (0 min = 100), MEAN (M5 mAChR WT; 10uM Atr + 30uM LY2033, 15 min): 100.045
- [3H]-NMS binding remaining (0 min = 100), MEAN (M5 mAChR WT; 10uM Atr + 30uM LY2033, 30 min): 98.0655
- [3H]-NMS binding remaining (0 min = 100), MEAN (M5 mAChR WT; 10uM Atr + 30uM LY2033, 90 min): 75.4577
- [3H]-NMS binding remaining (0 min = 100), MEAN (M5 mAChR WT; [1]): 66.5441
- [3H]-NMS binding remaining (0 min = 100), MEAN (M5 mAChR WT; [2]): 53.7527
- [3H]-NMS binding remaining (0 min = 100), MEAN (M3 mAChR WT; 10uM Atr + 30uM LY2033, 10 min): 96.1336
- [3H]-NMS binding remaining (0 min = 100), MEAN (M3 mAChR WT; 10uM Atr + 30uM LY2033, 15 min): 101.345
- [3H]-NMS binding remaining (0 min = 100), MEAN (M3 mAChR WT; 10uM Atr + 30uM LY2033, 30 min): 103.79
- [3H]-NMS binding remaining (0 min = 100), MEAN (M3 mAChR WT; 10uM Atr + 30uM LY2033, 90 min): 88.3999
- [3H]-NMS binding remaining (0 min = 100), MEAN (M3 mAChR WT; [1]): 77.6461
- [3H]-NMS binding remaining (0 min = 100), MEAN (M3 mAChR WT; [2]): 65.167

SMILES: C[N+](C)(C)CC#CCOC1=NOCC1 [iperoxo]
- [3H]-NMS binding remaining (0 min = 100), MEAN (M2 mAChR WT; 10uM Atr + 10 μM Iperoxo, 5 min): 84.1199
- [3H]-NMS binding remaining (0 min = 100), MEAN (M2 mAChR WT; [3]): 57.067
- [3H]-NMS binding remaining (0 min = 100), MEAN (M2 mAChR WT; [4]): 42.2975
- [3H]-NMS binding remaining (0 min = 100), MEAN (M2 mAChR WT; [5]): 18.0197
- [3H]-NMS binding remaining (0 min = 100), MEAN (M2 mAChR WT; 10uM Atr + 10 μM Iperoxo, 40 min): 11.4621
- [3H]-NMS binding remaining (0 min = 100), MEAN (M2 mAChR WT; 10uM Atr + 10 μM Iperoxo, 60 min): 5.852
- [3H]-NMS binding remaining (0 min = 100), MEAN (M2 mAChR WT; [6]): 5.287
- [3H]-NMS binding remaining (0 min = 100), MEAN (M4 mAChR F186A; [5]): 78.4972
- [3H]-NMS binding remaining (0 min = 100), MEAN (M4 mAChR F186A; [6]): 56.5181
- [3H]-NMS binding remaining (0 min = 100), MEAN (M4 mAChR F186A; 10uM Atr + 10 μM Iperoxo, 180 min): 43.1916
- [3H]-NMS binding remaining (0 min = 100), MEAN (M4 mAChR F186A; 10uM Atr + 10 μM Iperoxo, 300 min): 30.9448
- [3H]-NMS binding remaining (0 min = 100), MEAN (M5 mAChR WT; [3]): 98.7473
- [3H]-NMS binding remaining (0 min = 100), MEAN (M5 mAChR WT; [4]): 104.707
- [3H]-NMS binding remaining (0 min = 100), MEAN (M5 mAChR WT; [5]): 92.7543
- [3H]-NMS binding remaining (0 min = 100), MEAN (M5 mAChR WT; [6]): 56.424
- [3H]-NMS binding remaining (0 min = 100), MEAN (M5 mAChR WT; [7]): 46.6348
- [3H]-NMS binding remaining (0 min = 100), MEAN (M5 mAChR WT; [8]): 27.5139
- [3H]-NMS binding remaining (0 min = 100), MEAN (M3 mAChR WT; [3]): 100.4
- [3H]-NMS binding remaining (0 min = 100), MEAN (M3 mAChR WT; [4]): 96.8554
- [3H]-NMS binding remaining (0 min = 100), MEAN (M3 mAChR WT; [5]): 79.7803
- [3H]-NMS binding remaining (0 min = 100), MEAN (M3 mAChR WT; [6]): 45.8424
- [3H]-NMS binding remaining (0 min = 100), MEAN (M3 mAChR WT; [7]): 38.0708
- [3H]-NMS binding remaining (0 min = 100), MEAN (M3 mAChR WT; [8]): 19.3493
